One data set can be described thus: Water solubility. Particulars: result in words; method not given. The data set is classed as physicochemical.
Another data set relates to MCF-7 cells. The experiment in a line: MTS cell viability assay, 24h treatment. The data set is classed as cell-based. Particulars: result in words.

Here are results for two compounds from publication PMC3431920 (Molecular bioSystems, 2012).

With `C[C@@H](c1ccccc1)N(CC(N)=O)C(=O)CN(C(=O)CN(CCCCN)C(=O)CN(C(=O)CN(C(=O)CN(CCCCN)C(=O)CN(C(=O)CN(C(=O)CN(CCCCN)C(=O)CN(C(=O)CN(C(=O)CN(CCCCN)C(=O)c1ccc2c(c1)C(=O)OC21c2ccc(O)cc2Oc2cc(O)ccc21)[C@@H](C)c1ccccc1)[C@@H](C)c1ccccc1)[C@@H](C)c1ccccc1)[C@@H](C)c1ccccc1)[C@@H](C)c1ccccc1)[C@@H](C)c1ccccc1)[C@@H](C)c1ccccc1` [Construct 4], the water solubility entry in the data set “Water solubility” is on record as “good water solubility”.
For the compound `N=C(N)NCCC[C@H](NC(=O)[C@H](CCCNC(=N)N)NC(=O)[C@H](CCCNC(=N)N)NC(=O)[C@H](CCCNC(=N)N)NC(=O)[C@H](CCCNC(=N)N)NC(=O)[C@H](CCCNC(=N)N)NC(=O)[C@H](CCCNC(=N)N)NC(=O)[C@H](CCCNC(=N)N)NC(=O)c1ccc2c(c1)C(=O)OC21c2ccc(O)cc2Oc2cc(O)ccc21)C(N)=O` [Construct 1], the “cytotoxicity (in words)” value with MCF-7 cells is recorded as “minor cytotoxicity”.
